Assay results: patent US5532265A, “Treatment of central nervous system inflammatory disease with matrix metalloprotease inhibitors” (The Board of Trustees of the Leland Stanford Junior …, priority 1994, dated 1996)

Columns and labels:
EAE in SJL/J mice [1] = assay: Histopathology of brain and spinal cord (inflammation, demyelination); type: in vivo; conditions: for Demyelination Brain + SC / Inflammation Brain / Inflammation Spinal Cord: 1 × 1.33 mg/d i.p.; for Demyelination Brain + SC: demyelination score; for Inflammation Brain / Inflammation Spinal Cord: total inflammatory score
Experimental: Sections were stained with hematoxylin and eosin, Kluver-Barrera and Giemsa stain. Histopathology was assessed as follows. Individual inflammatory lesions were scored as 1=perivascular inflammatory cuff≤three cells thick, 2=>three cells thick. 3=parenchymal infiltrate. The total inflammatory score was then calculated by adding all the scores for individual lesions from all the sections for a given sample. The demyelination score was calculated the same way as inflammatory score, with 1=demyelinated rim around infiltrate, 2=demyelination extending into noninfiltrated tissue.

[2] = In vivo inhibitor kinetics (GM 6001 concentration in CSF); parameters: species or system mice; conditions: for concentration at 3 h: for at least 3 h
Experimental: In vivo inhibitor kinetics. Normal noninduced animals or animals with clinical signs of EAE for 2 d were given a single intraperitoneal injection of 4 mg GM 6001 and euthanized by CO2 inhalation after various time intervals. CSF was taken by suboccipital puncture. Pooled CSF from five animals per time point was frozen immediately at -70° C. GM 6001 concentrations were determined by reversed-phase HPLC by Bay Bioanalytical Laboratories, Richmond, Calif. was diluted into 20% acetonitrile in water and chromatographed on a C-18 reversed-phase column with fluorescence detection. Linearity was determined by spiking blank CSF with increasing amounts of GM 6001. The amount of GM 6001 in CSF samples was calculated based on recovery of GM 6001 and the internal standard in spiked samples. The lower limit for quantification of GM 6001 in the CSF samples was 60 ng/rnl.

EAE in SJL/J mice [3] = assay: Blood-brain barrier permeability (Evans blue); type: in vivo
Experimental: Mice were injected intravenously with 1% (wt/vol) Evans blue (Fisher Scientific Co., Fair Lawn, N.J.) in PBS at a dosage of 4 μl/g body weight. After 1 h the animals were euthanized by CO2 inhalation and perfused with PBS via the left ventricle. Brain and spinal cord were dissected and cut longitudinally. Half of the CNS was used for histopathological evaluation. The other half was weighed and tissue samples were then extracted for 3 d in formamide (5 μl/mg tissue) and the extracts centrifuged for 5 min at 500 g. Evans blue concentration in the extracts was determined by measuring the absorbance at 650 nm. The blood-brain barrier permeability index was calculated by dividing the value for each sample by the corresponding (brain or spinal cord) mean value of four normal noninduced animals.

[4] = test system: gelatinase A and B in the CSF from animals with EAE; assay: In vitro inhibition of gelatinase activity in CSF (SDS/PAGE zymography); type: biochemical, mice
Experimental: In vitro inhibition of gelatinase activity. Gelatinase activity in a pooled CSF sample from animals with clinical signs of EAE (grade 2-3 for 4-5 d) was determined by SDS/PAGE zymography. CSF was applied without prior denaturation to a single-well 7.5% (wt/vol) polyacrylamide gel containing 0.1% (wt/vol) SDS to which 0.1% (wt/vol) tissue culture grade gelatin (Sigma Chemical Co., St. Louis, Mo.) was added and copolymerized. […] The gel (7 cm×10 cm×0.75 mm) was run for approximately 2 h at 20 mA. After electrophoresis the gel was washed (washing buffer: 50 mM Tris-HCL, 10 mM CaCl2, 0.02% (wt/vol) NaN3, 2.5% (vol/vol) Triton X-100, pH 7.5) to remove the SDS and sliced into strips. The resulting strips were incubated separately at 37° C. during 24 h (same buffer as for the washing, containing only 1% [vol/vol] Triton X-100) for development of the enzyme activity, stained with Coomassie brilliant blue R-250 and destained in methanol/acetic acid. Gelatinase activity was detected as unstained bands on a blue background. To assess the effect of protease inhibitors on the gelatinase activity present in the CSF, metalloprotease inhibitors (dissolved in DMSO) were added to the incubation buffer. GM 6001 was used at final concentrations from 0.1 to 33 μM; 1,10-phenanthroline (Sigma Chemical Co.) was used as a positive control at 2.5 mM, and the noninhibitor lane was incubated in 0.5% (vol/vol) DMSO.

EAE in SJL/J mice [5] = assay: Clinical scoring of EAE; type: in vivo; parameters: key to Change in average cumulative score During treatment / Change in average cumulative score After treatment: change in cumulative EAE grade; 0 = no signs, 5 = death
Experimental: EAE induction, Female SJL/J mice (Jackson Laboratory, Bar Harbor, Me.) were used at 5-7 week of age. […] PLP peptide 139-151 was prepared by continuous flow solid phase synthesis according to the sequence (SEQ ID NO 1 ) HCLGKWLGHPDKF by the Protein and Nucleic Acid Facility, Beckman Center, Stanford, Calif. Peptide purity was examined by HPLC analysis and peptide identity was confirmed by amino-acid composition analysis.
EAE was scored clinically as follows: no neurological signs=grade 0, weak tail=grade 1, wobbly walk or limb paresis=grade 2, limb paralysis=grade 3, inability to move=grade 4, death=grade 5. Easy access to food and water was provided and animals with grade 3 or 4 received daily parenteral fluid.
[…] The same volume of vehicle was used as a control treatment. Animals were treated daily either from the day of disease induction for 20 d or from the onset of clinical signs for 10 d (randomized for the different treatment groups).

gelatinase B = conditions: cited from earlier work
[6] = 3 days of treatment from onset of clinical signs
[7] = 10 days of treatment from onset of clinical signs
[8] = animals with EAE, single intraperitoneal dose of 4 mg
[9] = Experiment 1, from disease induction for 20 d, 2X/d 2.00 mg i.p.
[10] = Experiment 1, from onset of clinical signs for 10 d, 2X/d 2.00 mg i.p.
[11] = Experiment 2, from disease induction for 20 d, 1X/d 0.13 mg i.p.
[12] = Experiment 2, from disease induction for 20 d, 1X/d 0.40 mg i.p.
[13] = Experiment 2, from disease induction for 20 d, 1X/d 1.33 mg i.p.
[14] = Experiment 2, from disease induction for 20 d, 1X/d 4.00 mg i.p.
[15] = Experiment 2, from onset of clinical signs for 10 d, 1X/d 0.13 mg i.p.
[16] = Experiment 2, from onset of clinical signs for 10 d, 1X/d 0.40 mg i.p.
[17] = Experiment 2, from onset of clinical signs for 10 d, 1X/d 1.33 mg i.p.
[18] = Experiment 2, from onset of clinical signs for 10 d, 1X/d 4.00 mg i.p.

Compound: CNC(=O)[C@H](Cc1c[nH]c2ccccc12)NC(=O)[C@@H](CC(=O)NO)CC(C)C [GM 6001, N-[2(R)-2-(hydroxamidocarbonylmethyl)-4-methylpentanoyl]-L-tryptophan methylamide]
- Demyelination Brain + SC (EAE in SJL/J mice [1]; [6]): 3.7 ± 0.88
- Inflammation Brain (EAE in SJL/J mice [1]; [6]): 31.7 ± 5.17
- Inflammation Spinal Cord (EAE in SJL/J mice [1]; [6]): 14.7 ± 1.67
- Demyelination Brain + SC (EAE in SJL/J mice [1]; [7]): 2.3 ± 0.63
- Inflammation Brain (EAE in SJL/J mice [1]; [7]): 21.0 ± 3.14
- Inflammation Spinal Cord (EAE in SJL/J mice [1]; [7]): 15.0 ± 3.24
- inflammatory and demyelination scores compared with vehicle (EAE in SJL/J mice [1]; after 3 and 10 d of treatment, 1×1.33 mg/d from onset, differences not statistically significant): lower after 3 and 10 d of treatment with GM 6001 in all but one group
- duration of detectable levels in the CSF [2, 8]: at least 4 h
- time after injection at which detectable levels in the CSF start [2, 8]: 30 min
- concentration at 8 h ([2]; mouse, csf, ip, animals with EAE, single i.p. dose of 4 mg, after 8 hours): 100 ng/mL
- concentration at 16 h ([2]; mouse, csf, ip, animals with EAE, single i.p. dose of 4 mg, after 16 hours): < 60 ng/mL
- concentration at 3 h ([2]; mouse, csf, ip, animals with EAE, single i.p. dose of 4 mg): 100 to 200 ng/mL
- concentration at 3 h ([2]; mouse, csf, ip, animals with EAE, single i.p. dose of 4 mg, converted from ng/ml): 250 to 500 nM
- concentration in the CSF ([2]; normal noninduced animals, single i.p. dose of 4 mg): never rose above the detection limit
- Blood Brain Barrier Index Spinal Cord (EAE in SJL/J mice [3]; 3 days of treatment from onset of clinical signs, 1 × 1.33 mg/d i.p.): 0.7 ± 0.12
- Blood Brain Barrier Index Brain (EAE in SJL/J mice [3]; 3 days of treatment from onset of clinical signs, 1 × 1.33 mg/d i.p., ratio of permeability for Evan's blue): 1.1 ± 0.16
- Blood Brain Barrier Index Spinal Cord (EAE in SJL/J mice [3]; 10 days of treatment from onset of clinical signs, 1 × 1.33 mg/d i.p.): 1.1 ± 0.11
- blood-brain barrier index (EAE in SJL/J mice [3]; after 10 d of disease, 1×1.33 mg/d from onset, vehicle significantly elevated, P<0.05): normal
- inhibition of gelatinase A compared with gelatinase B in CSF ([4]; CSF from animals with EAE): equally well inhibited
- inhibition of gelatinase activity in CSF ([4]; GM 6001 at 1 μM to 33 μM, pooled CSF from animals with EAE, zymography): completely inhibited all gelatinase activity
- inhibition of gelatinase activity in CSF ([4]; GM 6001 at 0.1 and 0.33 μM, pooled CSF from animals with EAE, zymography): partial inhibition
- efficacy at low dose when given from disease induction (EAE in SJL/J mice [5]; 0.13 mg/d once daily, P<0.05 (4 and 1.33 mg/d P<0.005)): still effective
- efficacy of single daily dose compared with 2×2 mg/d (EAE in SJL/J mice [5]; 4 mg/d once daily i.p., both treatment schedules): comparable efficacy
- Change in average cumulative score After treatment (EAE in SJL/J mice [5]; [9]): 9.9 ± 2.17
- Change in average cumulative score During treatment (EAE in SJL/J mice [5]; [9]): 7.0 ± 2.57
- Change in average cumulative score After treatment (EAE in SJL/J mice [5]; [10]): -7.2 ± 2.69
- Change in average cumulative score During treatment (EAE in SJL/J mice [5]; [10]): -6.5 ± 2.08
- Change in average cumulative score After treatment (EAE in SJL/J mice [5]; [11]): 18.0 ± 9.82
- Change in average cumulative score During treatment (EAE in SJL/J mice [5]; [11]): 7.7 ± 3.09
- Change in average cumulative score After treatment (EAE in SJL/J mice [5]; [12]): 23.9 ± 4.96
- Change in average cumulative score During treatment (EAE in SJL/J mice [5]; [12]): 11.3 ± 0.94
- Change in average cumulative score After treatment (EAE in SJL/J mice [5]; [13]): 12.0 ± 3.83
- Change in average cumulative score During treatment (EAE in SJL/J mice [5]; [13]): 3.4 ± 1.77
- Change in average cumulative score After treatment (EAE in SJL/J mice [5]; [14]): 22.2 ± 4.61
- Change in average cumulative score During treatment (EAE in SJL/J mice [5]; [14]): 2.4 ± 1.16
- Change in average cumulative score After treatment (EAE in SJL/J mice [5]; [15]): -10.6 ± 5.67
- Change in average cumulative score During treatment (EAE in SJL/J mice [5]; [15]): 2.0 ± 1.92
- Change in average cumulative score After treatment (EAE in SJL/J mice [5]; [16]): -7.9 ± 4.44
- Change in average cumulative score During treatment (EAE in SJL/J mice [5]; [16]): -0.3 ± 2.03
- Change in average cumulative score After treatment (EAE in SJL/J mice [5]; [17]): -15.0 ± 5.79
- Change in average cumulative score During treatment (EAE in SJL/J mice [5]; [17]): -4.1 ± 1.81
- Change in average cumulative score After treatment (EAE in SJL/J mice [5]; [18]): -7.1 ± 7.86
- Change in average cumulative score During treatment (EAE in SJL/J mice [5]; [18]): -4.3 ± 2.69
- clinical severity of the disease compared with the vehicle-treated group (EAE in SJL/J mice [5]; FIG. 1, from disease induction for 20 d, 2×2 mg/d i.p., 10 animals per group): significantly reduced
- disease score, treatment of clinical relapse (EAE in SJL/J mice [5]; FIG. 3, 1×4 mg/d for 10 days from onset of clinical relapse, nine animals): statistically significant difference
- recovery from the drop in body weight associated with the onset of EAE (EAE in SJL/J mice [5]; experiment 2): recovered faster
- clinical scores after start of treatment (EAE in SJL/J mice [5]; from onset of clinical signs for 10 d, 2×2 mg/d, P<0.005 vs vehicle up to two days after treatment): decreased the day after the start of treatment
- animals returned to score 0 (clinically normal) within 12 d following the onset of clinical signs (EAE in SJL/J mice [5]; from onset of clinical signs for 10 d, 2×2 mg/d, vehicle 3 out of 10): 8 out of 10
- animals that returned to score 0 and had a clinical disease relapse during the follow-up period (EAE in SJL/J mice [5]; of the 8 recovered animals, 2×2 mg/d from onset for 10 d, vehicle all 3): 7 animals
- reduction of disease severity when treated from disease onset (EAE in SJL/J mice [5]; once daily 4, 1.33, 0.40, 0.13 mg/d, P<0.05, FIG. 2): only 4 and 1.33 mg/d were significantly effective
- Ki (gelatinase B): 0.2 nM

Compound: c1cnc2c(c1)ccc1cccnc12 [phenanthroline, 1,10-phenanthroline, reference compound]
- inhibition of gelatinase activity in CSF ([4]; phenanthroline 2.5 mM, positive control): served as an inhibitory control
